Experiments:
Conditions in all cases: 336 h, Table 3, post-emergence, 14±1 days post application
[1] = test system: Amaranthus retroflexus (AMARE); assay: Post-emergence glasshouse test, visual injury, AMARE; format: in vivo
Protocol: (§1) Seeds of a variety of test species are grown in a sandy loam soil mixture, Lolium multiflorum (LOLMU), Amaranthus retroflexus (AMARE), Echinochloa crus-gaffi (ECHCG), Veronica persica (VERPE), Glycine max (GLXMA), Oryza sativa (ORYSA), Zea mays (ZEAMX), spring wheat (TRZAS), Ipomoea hederacea (IPOHE), Ipomoea purpurea (PHBPU), Stellaria media (STEME), Solanum nigrum (SOLNI), Digitaria sanguinalis (DIGSA), Setaria italica (SETIT), Alopecurus myosuroides (ALOMY) and Avena fatua (AVEFA).
(§2) After sowing, at growth stage BBCH 12-14 (post-emergence), the plants are sprayed with an aqueous spray solution derived from the formulation of the technical active ingredient in acetone/water (50:50) solution containing 0.5% Tween 20 (polyoxyethlyene sorbitan monolaureate, CAS RN 9005-64-5). The test compounds are applied at the required concentration of active ingredient in g/ha. The test plants are then grown in a glasshouse under controlled environmental conditions and watered regularly as required. After 14±1 days post application (for post-emergence test), the test is evaluated by assessing the percentage damage caused to the plants in comparison with the untreated plots. The biological activities for post-emergence testing are shown below (Table 3 and Table 4) as a % visual injury.

[2] = test system: Lolium multiflorum (LOLMU); assay: Post-emergence glasshouse test, visual injury, LOLMU; format: in vivo
Protocol: as §1, §2

[3] = test system: Veronica persica (VERPE); assay: Post-emergence glasshouse test, visual injury, VERPE; format: in vivo
Protocol: as §1, §2

[4] = test system: Echinochloa crus-gaffi (ECHCG); assay: Post-emergence glasshouse test, visual injury, ECHCG; format: in vivo, Echinochloa crus-galli
Protocol: as §1, §2

Cc1cc(-c2cnc(NCc3ccc(F)cc3)nc2C)on1 [Compound 128]
pest or weed control at 125 g/ha [1]: 95%
pest or weed control at 125 g/ha [2]: 30%
pest or weed control at 125 g/ha [3]: 95%
pest or weed control at 125 g/ha [4]: 30%

Cc1cc(-c2cnc(N)nc2-c2ccc(C)o2)on1 [Compound 2, 5-(3-methyl-1,2-oxazol-5-yl)-4-(5-methylfuran-2-yl)pyrimidin-2-amine]
pest or weed control at 500 g/ha [1]: 30%
pest or weed control at 500 g/ha [2]: 40%
pest or weed control at 500 g/ha [3]: 0%
pest or weed control at 500 g/ha [4]: 10%

CCN(C)c1ncc(-c2cc(C)no2)c(C(C)C)n1 [Compound 1, N-ethyl-N-methyl-5-(3-methyl-1,2-oxazol-5-yl)-4-(propan-2-yl)pyrimidin-2-amine]
pest or weed control at 125 g/ha [1]: 0%
pest or weed control at 500 g/ha [1]: 70%
pest or weed control at 125 g/ha [2]: 0%
pest or weed control at 500 g/ha [2]: 0%
pest or weed control at 125 g/ha [3]: 0%
pest or weed control at 500 g/ha [3]: 90%
pest or weed control at 125 g/ha [4]: 0%
pest or weed control at 500 g/ha [4]: 50%

CCN(CC)c1ncc(-c2cc(C)no2)c(C(C)C)n1 [Compound 10]
pest or weed control at 250 g/ha [1]: 0%
pest or weed control at 250 g/ha [2]: 0%
pest or weed control at 250 g/ha [3]: 0%
pest or weed control at 250 g/ha [4]: 30%

Cc1cc(-c2cnc(NCc3ccc(F)cn3)nc2C(C)C)on1 [Compound 96]
pest or weed control at 62 g/ha [1]: 50%
pest or weed control at 62 g/ha [2]: 0%
pest or weed control at 62 g/ha [3]: 50%
pest or weed control at 62 g/ha [4]: 40%

Cc1cc(-c2cnc(NCC3CCCC3)nc2C(C)C)on1 [Compound 107]
pest or weed control at 125 g/ha [1]: 30%
pest or weed control at 125 g/ha [2]: 0%
pest or weed control at 125 g/ha [3]: 50%
pest or weed control at 125 g/ha [4]: 50%

Cc1cc(-c2cnc(NCc3cccnc3)nc2C(C)(C)C)on1 [Compound 75]
pest or weed control at 500 g/ha [1]: 98%
pest or weed control at 500 g/ha [2]: 70%
pest or weed control at 500 g/ha [3]: 90%
pest or weed control at 500 g/ha [4]: 40%

CC(=O)N1CCN(c2ncc(-c3cc(C)no3)c(C3CC3)n2)CC1 [Compound 50]
pest or weed control at 500 g/ha [1]: 60%
pest or weed control at 500 g/ha [2]: 0%
pest or weed control at 500 g/ha [3]: 0%
pest or weed control at 500 g/ha [4]: 50%

Cc1cc(-c2cnc(NC3CC3)nc2C2CC2)on1 [Compound 84]
pest or weed control at 125 g/ha [1]: 60%
pest or weed control at 250 g/ha [1]: 80%
pest or weed control at 125 g/ha [2]: 50%
pest or weed control at 250 g/ha [2]: 70%
pest or weed control at 125 g/ha [3]: 60%
pest or weed control at 250 g/ha [3]: 100%
pest or weed control at 125 g/ha [4]: 90%
pest or weed control at 250 g/ha [4]: 100%

Cc1cc(-c2cnc(NCc3ccc(F)cc3)nc2C2CCC2)on1 [Compound 105]
pest or weed control at 125 g/ha [1]: 30%
pest or weed control at 125 g/ha [2]: 0%
pest or weed control at 125 g/ha [3]: 50%
pest or weed control at 125 g/ha [4]: 0%

Cc1cc(-c2cnc(NCc3ccc(F)cc3)nc2C(C)(C)C)on1 [Compound 47]
pest or weed control at 500 g/ha [1]: 40%
pest or weed control at 500 g/ha [2]: 0%
pest or weed control at 500 g/ha [3]: 80%
pest or weed control at 500 g/ha [4]: 50%

Cc1cc(-c2cnc(NC3CCCC3)nc2C(F)(F)F)on1 [Compound 91]
pest or weed control at 125 g/ha [1]: 90%
pest or weed control at 125 g/ha [2]: 80%
pest or weed control at 125 g/ha [3]: 99%
pest or weed control at 125 g/ha [4]: 95%

Cc1ccc(CNc2ncc(-c3cc(C)no3)c(C(C)C)n2)cc1 [Compound 100]
pest or weed control at 62 g/ha [1]: 80%
pest or weed control at 62 g/ha [2]: 0%
pest or weed control at 62 g/ha [3]: 95%
pest or weed control at 62 g/ha [4]: 80%

Cc1cc(-c2cnc(NCC3CCCCC3)nc2C(C)C)on1 [Compound 108]
pest or weed control at 125 g/ha [1]: 50%
pest or weed control at 125 g/ha [2]: 0%
pest or weed control at 125 g/ha [3]: 50%
pest or weed control at 125 g/ha [4]: 20%

Cc1cc(-c2cnc(NCc3ccccc3C)nc2C(C)C)on1 [Compound 98]
pest or weed control at 62 g/ha [1]: 60%
pest or weed control at 62 g/ha [2]: 0%
pest or weed control at 62 g/ha [3]: 80%
pest or weed control at 62 g/ha [4]: 70%

C=COCCCNc1ncc(-c2cc(C)no2)c(C(C)C)n1 [Compound 35]
pest or weed control at 500 g/ha [1]: 0%
pest or weed control at 500 g/ha [2]: 0%
pest or weed control at 500 g/ha [3]: 98%
pest or weed control at 500 g/ha [4]: 60%

Cc1cc(-c2cnc(NCCc3c(C)noc3C)nc2C(C)C)on1 [Compound 62]
pest or weed control at 500 g/ha [1]: 70%
pest or weed control at 500 g/ha [2]: 40%
pest or weed control at 500 g/ha [3]: 70%
pest or weed control at 500 g/ha [4]: 50%

Cc1cc(-c2cnc(N3CCC(C(N)=O)CC3)nc2C(C)C)on1 [Compound 69]
pest or weed control at 500 g/ha [1]: 50%
pest or weed control at 500 g/ha [2]: 0%
pest or weed control at 500 g/ha [3]: 60%
pest or weed control at 500 g/ha [4]: 0%

Cc1cc(-c2cnc(NCc3cccs3)nc2C2CC2)on1 [Compound 80]
pest or weed control at 500 g/ha [1]: 60%
pest or weed control at 500 g/ha [2]: 30%
pest or weed control at 500 g/ha [3]: 60%
pest or weed control at 500 g/ha [4]: 80%

Cc1cc(-c2cnc(NCc3cccc(F)c3)nc2C(C)C)on1 [Compound 17]
pest or weed control at 1000 g/ha [1]: 100%
pest or weed control at 1000 g/ha [2]: 0%
pest or weed control at 1000 g/ha [3]: 100%
pest or weed control at 1000 g/ha [4]: 80%

CCc1nc(NCc2ccc(F)cc2)ncc1-c1cc(C)no1 [Compound 106]
pest or weed control at 125 g/ha [1]: 90%
pest or weed control at 125 g/ha [2]: 0%
pest or weed control at 125 g/ha [3]: 95%
pest or weed control at 125 g/ha [4]: 30%

Cc1cc(-c2cnc(NCCN3CCCC3=O)nc2C2CC2)on1 [Compound 30]
pest or weed control at 500 g/ha [1]: 60%
pest or weed control at 500 g/ha [2]: 0%
pest or weed control at 500 g/ha [3]: 0%
pest or weed control at 500 g/ha [4]: 70%

Cc1cc(-c2cnc(N(C)C)nc2C(C)C)on1 [Compound 82]
pest or weed control at 250 g/ha [1]: 0%
pest or weed control at 250 g/ha [2]: 30%
pest or weed control at 250 g/ha [3]: 20%
pest or weed control at 250 g/ha [4]: 70%

Cc1cc(-c2cnc(N3CCCCCC3)nc2C(C)C)on1 [Compound 49]
pest or weed control at 500 g/ha [1]: 50%
pest or weed control at 500 g/ha [2]: 0%
pest or weed control at 500 g/ha [3]: 30%
pest or weed control at 500 g/ha [4]: 60%

COc1ccc(CCNc2ncc(-c3cc(C)no3)c(C3CC3)n2)cc1OC [Compound 78]
pest or weed control at 500 g/ha [1]: 95%
pest or weed control at 500 g/ha [2]: 40%
pest or weed control at 500 g/ha [3]: 99%
pest or weed control at 500 g/ha [4]: 80%

Cc1cc(-c2cnc(N3CCNC(=O)C3)nc2-c2ccc(C)o2)on1 [Compound 37]
pest or weed control at 500 g/ha [1]: 50%
pest or weed control at 500 g/ha [2]: 0%
pest or weed control at 500 g/ha [3]: 0%
pest or weed control at 500 g/ha [4]: 0%

Cc1cc(-c2cnc(N3CCCCC3)nc2C2CC2)on1 [Compound 31]
pest or weed control at 500 g/ha [1]: 70%
pest or weed control at 500 g/ha [2]: 0%
pest or weed control at 500 g/ha [3]: 0%
pest or weed control at 500 g/ha [4]: 30%

Cc1cc(-c2cnc(NCC3CCC3)nc2C(C)C)on1 [Compound 87]
pest or weed control at 125 g/ha [1]: 50%
pest or weed control at 125 g/ha [2]: 30%
pest or weed control at 125 g/ha [3]: 70%
pest or weed control at 125 g/ha [4]: 80%

Cc1cc(-c2cnc(NC(C)C)nc2C(F)(F)F)on1 [Compound 115]
pest or weed control at 125 g/ha [1]: 20%
pest or weed control at 125 g/ha [2]: 0%
pest or weed control at 125 g/ha [3]: 60%
pest or weed control at 125 g/ha [4]: 0%

COCCCNc1ncc(-c2cc(C)no2)c(C(C)C)n1 [Compound 32]
pest or weed control at 500 g/ha [1]: 90%
pest or weed control at 500 g/ha [2]: 0%
pest or weed control at 500 g/ha [3]: 90%
pest or weed control at 500 g/ha [4]: 100%

Cc1cc(-c2cnc(NCC3COCCO3)nc2C2CC2)on1 (stereo not shown) [Compound 74]
pest or weed control at 500 g/ha [1]: 100%
pest or weed control at 500 g/ha [2]: 70%
pest or weed control at 500 g/ha [3]: 90%
pest or weed control at 500 g/ha [4]: 80%

Cc1cc(-c2cnc(NC(C)C)nc2C(C)C)on1 [Compound 83]
pest or weed control at 125 g/ha [1]: 95%
pest or weed control at 250 g/ha [1]: 98%
pest or weed control at 125 g/ha [2]: 40%
pest or weed control at 250 g/ha [2]: 50%
pest or weed control at 125 g/ha [3]: 70%
pest or weed control at 250 g/ha [3]: 100%
pest or weed control at 125 g/ha [4]: 70%
pest or weed control at 250 g/ha [4]: 100%

Cc1cc(-c2cnc(NCc3ccc(C#N)cc3)nc2C(C)C)on1 [Compound 118]
pest or weed control at 125 g/ha [1]: 80%
pest or weed control at 125 g/ha [2]: 0%
pest or weed control at 125 g/ha [3]: 95%
pest or weed control at 125 g/ha [4]: 20%

COc1cc(CNc2ncc(-c3cc(C)no3)c(C(C)C)n2)cc(OC)c1 [Compound 15]
pest or weed control at 1000 g/ha [1]: 60%
pest or weed control at 1000 g/ha [2]: 0%
pest or weed control at 1000 g/ha [3]: 100%
pest or weed control at 1000 g/ha [4]: 30%

COc1ccc(CCNc2ncc(-c3cc(C)no3)c(C(C)C)n2)cc1OC [Compound 34]
pest or weed control at 500 g/ha [1]: 70%
pest or weed control at 500 g/ha [2]: 30%
pest or weed control at 500 g/ha [3]: 100%
pest or weed control at 500 g/ha [4]: 80%

Cc1cc(-c2cnc(NCc3cccc(F)c3)nc2C2CC2)on1 [Compound 85]
pest or weed control at 125 g/ha [1]: 95%
pest or weed control at 250 g/ha [1]: 100%
pest or weed control at 125 g/ha [2]: 30%
pest or weed control at 250 g/ha [2]: 40%
pest or weed control at 125 g/ha [3]: 50%
pest or weed control at 250 g/ha [3]: 100%
pest or weed control at 125 g/ha [4]: 80%
pest or weed control at 250 g/ha [4]: 100%

Reference: US20230329236A1, “HERBICIDAL PYRIMIDINE DERIVATIVES” (MoA Technology Limited, priority 2020, published 2023)
